Experimental data from US20140113898A1, “BISARYLSULFONE AND DIALKYLARYLSULFONE COMPOUNDS AS CALCIUM CHANNEL BLOCKERS” (Zalicus Pharmaceuticals Ltd., priority 2010, published 2014).
pIC50: −log10 of the molar value. Read-outs that look alike come from different tables or passages of the source.

Tests used:
Format in all cases: cell-based
CaV2.2 = target: T1, CaV2.2 (Homo sapiens, UniProt Q00975); test: High-throughput CaV2.2/Kir2.3 FLIPR fluorescent assay; conditions: Fluo-4 FLIPR, closed or inactivated state not stated, read-out: FLIPR data CaV2.2
T1 construct: expressed in transfected cells; host or cells: unnamed doxycycline-inducible cell line
Summary of the method: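 Doxycycline-induced cells moved to 29 °C on assay day and were loaded with 4.4 μM Fluo-4. They were held in 2 mM KCl (closed state) or 12.5 mM KCl (inactivated state) buffer, pH 7.4, then depolarized with 130 mM KCl. Fluorescence was read 3 min on FLIPR, and IC50 was obtained from logistic fits.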

CaV3.1 = target: T2, CaV3.1 (Homo sapiens, UniProt O43497); test: High-throughput CaV3.1 T-type FLIPR fluorescent assay; conditions: Fluo-4 FLIPR
T2 construct: expressed in transfected cells; host or cells: unnamed doxycycline-inducible cell line
Description: Cells were plated in 384-well, clear-bottom, black-walled, poly-D-lysine coated plates (Becton Dickinson, Franklin Lake, N.J.) 2 days prior to use in the FLIPR assay. 100 μL of cells (2.0×10^6 cell/mL) containing doxycyline (Sigma-Aldrich, 1.5 μg/mL; to induce channel expression) were added to each well using a Multidrop (Thermo Scientific, Waltham, Mass.) and were maintained in 5% CO2 incubator at 37° C. On the morning of the assay, cells were transferred to a 5% CO2 incubator at 29° C.
Cells were washed with a wash buffer containing (in mM): 118 NaCl, 18.4 HEPES, 11.7 D-glucose, 0.05 CaCl2, 0.5 MgSO4, 1 KCl, and 1.2 KH2PO4, with the pH adjusted to 7.2 with NaOH. 4.4 μM of the fluorescent indicator dye, Fluo-4 (Invitrogen), prepared in pluronic acid
(Sigma-Aldrich), was loaded into the wells and incubated for 45 minutes at 29° C. in 5% CO2. Cells were then rinsed with the following low Ca^2+ buffer (in mM): 0.34 Na2HPO4, 4.2 NaHCO3, 0.44 KH2PO4, 0.41 MgSO4, 0.49 MgCl2-6H2O, 20 HEPES, 5.5 D-Glucose, 137 NaCl, 5.3 KCl, and 0.001 CaCl2, with 0.1% BSA and the pH adjusted to 7.2 with NaOH. Concentration-dependent response curves were generated from 5 mM stock solutions prepared in DMSO (Sigma-Aldrich) and diluted in the buffer containing low Ca^2+ and incubated for 20 minutes at 29° C. in 5% CO2. Calcium entry was evoked with an addition of (in mM): 0.34 Na2HPO4, 4.2 NaHCO3, 0.44 KH2PO4, 0.41 MgSO4, 0.49 MgCl2-6H2O, 20 HEPES, 5.5 D-Glucose, 137 NaCl, 5.3 KCl, and 6 CaCl2, with 0.1% BSA and the pH adjusted to 7.2 with NaOH. A change in the Fluo-4 fluorescence signal was assessed using FLIPR^TETRA™ instrument (Molecular Devices, Sunnyvale, Calif.) for 3 minutes following the elevation of extracellular KCl using an illumination wavelength of 470-495 nm with emissions recorded at 515-575 nm.
Concentration-dependent response curves were obtained by comparing the fluorescence signal in the presence of compound and fitted with a logistic function (1) to obtain the concentration that inhibited 50% (IC50) of the RLU signal using OriginPro v.7.5 software (OriginLab, Northampton, Mass.).
To assess the quality of the FLIPR assays the Z-factor (2) was used to quantify the suitability of the assay conditions using the following equation: […]
Data are expressed as mean and standard deviation (SD).

CaV3.2 = target: T3, CaV3.2 (Homo sapiens, UniProt O95180); test: High-throughput CaV3.2/Kir2.3 T-type FLIPR fluorescent assay; conditions: Fluo-4 FLIPR, closed or inactivated state not stated
T3 construct: expressed in transfected cells; host or cells: unnamed doxycycline-inducible cell line
Summary of the method: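 Doxycycline-induced cells loaded with Fluo-4, preincubated 20 min at 29°C with compound in 2 mM KCl (closed-state) or 7.6 mM KCl (inactivated-state) buffer, pH 7.4. Calcium entry triggered by 12 mM or 14.5 mM KCl respectively; fluorescence read 3 min by FLIPR, IC50 from logistic fit.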

T2 sequence (O43497 whole entry): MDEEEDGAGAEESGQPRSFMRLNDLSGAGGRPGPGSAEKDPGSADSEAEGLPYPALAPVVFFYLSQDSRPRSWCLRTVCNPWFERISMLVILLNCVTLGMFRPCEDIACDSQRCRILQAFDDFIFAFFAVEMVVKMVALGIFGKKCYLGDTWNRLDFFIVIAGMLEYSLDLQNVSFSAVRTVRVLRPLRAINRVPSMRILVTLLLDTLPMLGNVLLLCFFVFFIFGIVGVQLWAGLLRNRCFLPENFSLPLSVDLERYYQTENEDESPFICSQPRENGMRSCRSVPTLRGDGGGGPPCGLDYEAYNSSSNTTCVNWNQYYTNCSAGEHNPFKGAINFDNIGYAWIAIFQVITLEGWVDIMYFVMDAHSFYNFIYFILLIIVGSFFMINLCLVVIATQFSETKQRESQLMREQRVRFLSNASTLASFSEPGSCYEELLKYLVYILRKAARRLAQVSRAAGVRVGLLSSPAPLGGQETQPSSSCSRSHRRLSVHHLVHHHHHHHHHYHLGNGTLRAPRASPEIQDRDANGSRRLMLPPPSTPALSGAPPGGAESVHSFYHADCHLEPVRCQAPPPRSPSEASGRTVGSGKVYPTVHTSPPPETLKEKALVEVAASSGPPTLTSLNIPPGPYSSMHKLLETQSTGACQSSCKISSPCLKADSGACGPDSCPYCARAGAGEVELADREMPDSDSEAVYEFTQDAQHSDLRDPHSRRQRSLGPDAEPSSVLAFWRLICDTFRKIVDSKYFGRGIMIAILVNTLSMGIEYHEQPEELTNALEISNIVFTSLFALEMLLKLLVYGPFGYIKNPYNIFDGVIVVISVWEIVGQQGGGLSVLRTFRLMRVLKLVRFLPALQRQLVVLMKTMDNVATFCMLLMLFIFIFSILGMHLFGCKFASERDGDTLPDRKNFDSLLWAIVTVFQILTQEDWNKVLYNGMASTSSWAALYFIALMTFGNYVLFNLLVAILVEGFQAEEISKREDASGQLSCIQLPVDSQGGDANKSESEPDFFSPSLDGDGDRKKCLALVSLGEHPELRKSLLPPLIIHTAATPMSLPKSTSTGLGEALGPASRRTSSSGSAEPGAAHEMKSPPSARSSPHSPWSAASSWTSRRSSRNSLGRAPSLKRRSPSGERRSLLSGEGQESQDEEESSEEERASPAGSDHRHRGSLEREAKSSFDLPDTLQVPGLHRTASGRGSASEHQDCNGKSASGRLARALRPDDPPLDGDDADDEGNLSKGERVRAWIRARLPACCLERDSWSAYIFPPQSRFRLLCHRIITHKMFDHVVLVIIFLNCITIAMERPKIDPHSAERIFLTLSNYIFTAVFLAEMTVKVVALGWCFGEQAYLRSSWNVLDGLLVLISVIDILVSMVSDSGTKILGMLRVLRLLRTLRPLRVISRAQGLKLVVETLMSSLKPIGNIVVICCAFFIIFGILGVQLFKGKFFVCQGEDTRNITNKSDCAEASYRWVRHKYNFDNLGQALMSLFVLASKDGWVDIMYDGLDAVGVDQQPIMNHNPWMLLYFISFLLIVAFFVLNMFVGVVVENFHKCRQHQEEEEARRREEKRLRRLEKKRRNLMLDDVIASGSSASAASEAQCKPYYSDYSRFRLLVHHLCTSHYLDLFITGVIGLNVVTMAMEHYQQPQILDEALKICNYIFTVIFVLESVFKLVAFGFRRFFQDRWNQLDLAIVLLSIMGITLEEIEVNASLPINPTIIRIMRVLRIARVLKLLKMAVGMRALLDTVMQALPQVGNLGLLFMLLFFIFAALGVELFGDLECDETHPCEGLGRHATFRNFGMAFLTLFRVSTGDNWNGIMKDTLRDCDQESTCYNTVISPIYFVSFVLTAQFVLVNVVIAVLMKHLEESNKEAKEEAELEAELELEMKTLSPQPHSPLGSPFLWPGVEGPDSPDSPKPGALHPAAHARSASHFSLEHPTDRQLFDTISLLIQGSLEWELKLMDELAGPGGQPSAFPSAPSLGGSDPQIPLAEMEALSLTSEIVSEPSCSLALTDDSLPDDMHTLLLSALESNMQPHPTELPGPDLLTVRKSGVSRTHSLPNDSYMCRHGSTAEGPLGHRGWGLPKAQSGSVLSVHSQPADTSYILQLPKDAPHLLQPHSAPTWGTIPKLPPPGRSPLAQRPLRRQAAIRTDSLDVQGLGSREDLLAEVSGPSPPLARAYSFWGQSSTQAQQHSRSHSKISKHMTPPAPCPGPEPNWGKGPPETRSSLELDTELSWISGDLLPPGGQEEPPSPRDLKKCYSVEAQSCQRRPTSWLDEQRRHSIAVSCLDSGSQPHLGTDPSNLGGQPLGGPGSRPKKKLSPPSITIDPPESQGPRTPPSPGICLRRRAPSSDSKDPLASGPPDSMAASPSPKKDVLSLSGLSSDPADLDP
T3 sequence (O95180 whole entry): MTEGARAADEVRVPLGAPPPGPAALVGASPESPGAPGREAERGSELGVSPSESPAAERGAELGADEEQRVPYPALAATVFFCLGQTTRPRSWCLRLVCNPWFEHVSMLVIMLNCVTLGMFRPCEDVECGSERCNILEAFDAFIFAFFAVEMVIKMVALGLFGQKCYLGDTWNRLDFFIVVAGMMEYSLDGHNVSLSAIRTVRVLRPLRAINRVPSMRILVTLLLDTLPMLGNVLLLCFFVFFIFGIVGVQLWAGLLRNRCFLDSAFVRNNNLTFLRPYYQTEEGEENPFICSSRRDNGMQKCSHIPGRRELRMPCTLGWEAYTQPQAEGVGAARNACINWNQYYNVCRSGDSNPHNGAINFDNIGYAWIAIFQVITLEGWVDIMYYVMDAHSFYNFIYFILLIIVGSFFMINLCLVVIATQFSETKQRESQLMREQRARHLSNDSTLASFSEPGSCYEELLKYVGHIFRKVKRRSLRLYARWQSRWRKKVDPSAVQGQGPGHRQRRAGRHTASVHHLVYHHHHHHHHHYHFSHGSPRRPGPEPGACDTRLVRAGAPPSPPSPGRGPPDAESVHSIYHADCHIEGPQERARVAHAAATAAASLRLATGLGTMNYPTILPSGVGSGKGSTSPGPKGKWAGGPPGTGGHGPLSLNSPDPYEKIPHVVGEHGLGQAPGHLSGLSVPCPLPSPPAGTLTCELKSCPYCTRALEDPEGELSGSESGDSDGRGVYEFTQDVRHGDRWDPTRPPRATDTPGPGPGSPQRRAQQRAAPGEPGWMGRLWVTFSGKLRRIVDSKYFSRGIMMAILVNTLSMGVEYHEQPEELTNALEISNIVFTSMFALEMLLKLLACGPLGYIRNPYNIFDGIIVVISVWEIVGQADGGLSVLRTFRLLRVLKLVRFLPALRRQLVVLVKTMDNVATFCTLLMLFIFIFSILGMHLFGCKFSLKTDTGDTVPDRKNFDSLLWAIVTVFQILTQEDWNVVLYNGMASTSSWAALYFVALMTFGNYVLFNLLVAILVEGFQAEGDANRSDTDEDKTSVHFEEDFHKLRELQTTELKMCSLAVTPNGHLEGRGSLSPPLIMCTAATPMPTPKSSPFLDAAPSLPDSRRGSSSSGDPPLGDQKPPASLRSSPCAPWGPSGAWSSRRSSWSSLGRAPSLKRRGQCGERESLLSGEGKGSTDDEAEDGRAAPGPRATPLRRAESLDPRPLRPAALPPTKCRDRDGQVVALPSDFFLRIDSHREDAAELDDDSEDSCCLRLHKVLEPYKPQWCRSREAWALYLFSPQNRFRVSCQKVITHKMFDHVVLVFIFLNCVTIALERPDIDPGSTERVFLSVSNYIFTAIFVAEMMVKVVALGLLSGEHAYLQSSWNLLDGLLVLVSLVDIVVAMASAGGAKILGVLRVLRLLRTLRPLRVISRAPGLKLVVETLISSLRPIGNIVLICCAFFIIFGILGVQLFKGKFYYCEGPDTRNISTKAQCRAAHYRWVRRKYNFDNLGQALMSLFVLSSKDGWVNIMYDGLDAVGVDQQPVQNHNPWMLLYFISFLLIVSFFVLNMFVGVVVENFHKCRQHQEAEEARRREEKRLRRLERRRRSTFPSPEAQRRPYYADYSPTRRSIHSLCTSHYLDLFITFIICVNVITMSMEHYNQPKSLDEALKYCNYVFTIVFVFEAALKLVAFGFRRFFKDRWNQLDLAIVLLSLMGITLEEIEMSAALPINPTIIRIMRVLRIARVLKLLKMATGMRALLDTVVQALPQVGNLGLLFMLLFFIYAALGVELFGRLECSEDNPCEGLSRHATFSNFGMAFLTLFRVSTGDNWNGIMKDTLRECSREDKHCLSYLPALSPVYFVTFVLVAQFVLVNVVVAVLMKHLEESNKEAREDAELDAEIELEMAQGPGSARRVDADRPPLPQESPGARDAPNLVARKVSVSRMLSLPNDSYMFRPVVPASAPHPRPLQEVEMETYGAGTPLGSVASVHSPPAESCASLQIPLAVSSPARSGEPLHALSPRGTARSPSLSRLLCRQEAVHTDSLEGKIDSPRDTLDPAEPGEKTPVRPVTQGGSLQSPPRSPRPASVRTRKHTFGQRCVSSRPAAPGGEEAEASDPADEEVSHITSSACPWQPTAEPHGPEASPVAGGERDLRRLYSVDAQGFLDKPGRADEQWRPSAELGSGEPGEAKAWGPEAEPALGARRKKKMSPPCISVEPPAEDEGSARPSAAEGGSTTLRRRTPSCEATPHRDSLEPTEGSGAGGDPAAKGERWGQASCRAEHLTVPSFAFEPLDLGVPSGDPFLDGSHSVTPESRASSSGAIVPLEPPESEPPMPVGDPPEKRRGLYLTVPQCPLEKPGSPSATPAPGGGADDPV

Row | Structure (SMILES) | pIC50 (CaV2.2; Table 5) | pIC50 (CaV3.1; Table 5) | pIC50 (CaV3.2; Table 5) | pIC50 (CaV2.2; Table 4) | pIC50 (CaV3.1; Table 4) | pIC50 (CaV3.2; Table 4)
1 | CC(C)(C(=O)NCc1ccc(S(=O)(=O)c2cccc(C(F)(F)F)c2)cc1)S(=O)(=O)c1cccc(C(F)(F)F)c1 [Compound 225, 2-methyl-2-((3-(trifluoromethyl)phenyl)sulfonyl)-N-(4-((3-(trifluoromethyl)phenyl)sulfonyl)benzyl)propanamide] | 7.00 | 5.85 | 6.20 |  |  | 
2 | CC(C)(C(=O)N1CCC(c2ccc(C(F)(F)F)cc2)CC1)S(=O)(=O)c1cccc(C(F)(F)F)c1 [Compound 136, 2-methyl-1-(4-(4-(trifluoromethyl)phenyl)piperidin-1-yl)-2-((3-(trifluoromethyl)phenyl)sulfonyl)propan-1-one] | 6.41 | 5.36 | 5.61 |  |  | 
3 | CC(C)(C(=O)NCc1ccc(S(=O)(=O)c2cccc(C(F)(F)F)c2)cn1)S(=O)(=O)c1cccc(C(F)(F)F)c1 [Compound 87, 2-methyl-2-((3-(trifluoromethyl)phenyl)sulfonyl)-N-((5-((3-(trifluoromethyl)phenyl)sulfonyl)pyridin-2-yl)methyl)propanamide] |  |  |  | 6.77 | 5.77 | 5.90
4 | COc1cc(C(=O)NCc2cccc(S(=O)(=O)c3cccc(C(F)(F)F)c3)c2)cc(Cl)n1 [Compound 30] |  |  |  | 6.51 | 5.95 | 6.29
5 | CC(C)(C(=O)Nc1ccc(Oc2ccc(C(F)(F)F)nc2)nc1)S(=O)(=O)c1cccc(OC(F)(F)F)c1 [Compound 122, 2-methyl-2-((3-(trifluoromethoxy)phenyl)sulfonyl)-N-(6-((6-(trifluoromethyl)pyridin-3-yl)oxy)pyridin-3-yl)propanamide] | 6.15 | 5.31 | 5.79 |  |  | 
6 | N[C@H](C(=O)NCc1ccc(S(=O)(=O)c2cccc(C(F)(F)F)c2)cc1)c1ccccc1 [Compound 67, (S)-2-amino-2-phenyl-N-(4-((3-(trifluoromethyl)phenyl)sulfonyl)benzyl)acetamide] |  |  |  | 6.18 | 5.44 | 5.43
7 | O=C(NCc1cccc(S(=O)(=O)c2cccc(C(F)(F)F)c2)c1)c1ccc(C(F)(F)F)nc1 [Compound 19, 6-(trifluoromethyl)-N-(3-((3-(trifluoromethyl)phenyl)sulfonyl)benzyl)nicotinamide] |  |  |  | 6.31 | 5.68 | 6.01
8 | CC(C)(C(=O)N1CCN(c2cccc(C(F)(F)F)c2)CC1)S(=O)(=O)c1cccc(C(F)(F)F)c1 [Compound 132, 2-methyl-1-(4-(3-(trifluoromethyl)phenyl)piperazin-1-yl)-2-((3-(trifluoromethyl)phenyl)sulfonyl)propan-1-one] | 5.92 | 5.39 | 5.44 |  |  | 
9 | O=C(NCc1cccc(S(=O)(=O)c2cccc(C(F)(F)F)c2)c1)c1ccnc(C(F)(F)F)c1 [Compound 31, 2-(trifluoromethyl)-N-(3-((3-(trifluoromethyl)phenyl)sulfonyl)benzyl)isonicotinamide] |  |  |  | 6.41 | 5.76 | 6.14
10 | N[C@@H]1CCCC[C@H]1C(=O)NCc1ccc(S(=O)(=O)c2cccc(C(F)(F)F)c2)cc1 [Compound 81, (1R,2R)-2-amino-N-(4-((3-(trifluoromethyl)phenyl)sulfonyl)benzyl)cyclohexanecarboxamide] |  |  |  | 6.17 | 5.08 | 5.34
11 | O=C(NCc1ccc(S(=O)(=O)c2cccc(C(F)(F)F)c2)cc1)[C@@H]1C[C@@H](C2CCCCC2)CN1 [Compound 72, (2S,4S)-4-cyclohexyl-N-(4-((3-(trifluoromethyl)phenyl)sulfonyl)benzyl)pyrrolidine-2-carboxamide] |  |  |  | 6.12 | 5.05 | 5.63
12 | CC(C)(C(=O)NCCc1c[nH]c2ccc(F)cc12)S(=O)(=O)c1cccc(C(F)(F)F)c1 [Compound 131, N-(2-(5-fluoro-1H-indol-3-yl)ethyl)-2-methyl-2-((3-(trifluoromethyl)phenyl)sulfonyl)propanamide] | 6.10 | 5.18 | 5.28 |  |  | 
13 | CS(=O)(=O)c1cc(C(F)(F)F)cnc1C(=O)NCc1ccc(S(=O)(=O)c2cccc(C(F)(F)F)c2)cc1 [Compound 5, 3-(methylsulfonyl)-5-(trifluoromethyl)-N-(4-((3-(trifluoromethyl)phenyl)sulfonyl)benzyl)picolinamide] |  |  |  | 6.33 | 5.87 | 5.63
14 | O=C(NCc1ccc(S(=O)(=O)c2cccc(C(F)(F)F)c2)cn1)c1ccc(F)c(Cl)c1 [Compound 104, 3-chloro-4-fluoro-N-((5-((3-(trifluoromethyl)phenyl)sulfonyl)pyridin-2-yl)methyl)benzamide] |  |  |  | 6.22 | 5.81 | 6.06
15 | O=C(NCc1ccc(S(=O)(=O)c2cccc(C(F)(F)F)c2)cn1)c1ccc(Cl)c(F)c1 [Compound 88, 4-chloro-3-fluoro-N-((5-((3-(trifluoromethyl)phenyl)sulfonyl)pyridin-2-yl)methyl)benzamide] |  |  |  | 6.09 | 6.05 | 6.09
16 | CC(C)(CCN1CCn2nc(C(F)(F)F)cc2C1=O)S(=O)(=O)c1cccc(C(F)(F)F)c1 [Compound 187, 5-(3-methyl-3-((3-(trifluoromethyl)phenyl)sulfonyl)butyl)-2-(trifluoromethyl)-6,7-dihydropyrazolo[1,5-a]pyrazin-4(5H)-one] | 6.38 | 5.30 | 5.37 |  |  | 
17 | CC(C)(CCNC(=O)[C@@H]1C[C@@H](C2CCCCC2)CN1)S(=O)(=O)c1cccc(C(F)(F)F)c1 [Compound 218, (2S,4S)-4-cyclohexyl-N-(3-methyl-3-((3-(trifluoromethyl)phenyl)sulfonyl)butyl)pyrrolidine-2-carboxamide] | 6.13 | 5.25 | 5.49 |  |  | 
18 | O=C(NCc1cccc(S(=O)(=O)c2cccc(C(F)(F)F)c2)c1)c1cn2cc(C(F)(F)F)ccc2n1 [Compound 32, 6-(trifluoromethyl)-N-(3-((3-(trifluoromethyl)phenyl)sulfonyl)benzyl)imidazo[1,2-a]pyridine-2-carboxamide] |  |  |  | 6.80 | 5.85 | 6.43
19 | Cn1nc(C(F)(F)F)cc1C(=O)NCc1ccc(S(=O)(=O)c2cccc(C(F)(F)F)c2)cc1 [Compound 7, 1-methyl-3-(trifluoromethyl)-N-(4-((3-(trifluoromethyl)phenyl)sulfonyl)benzyl)-1H-pyrazole-5-carboxamide] |  |  |  | 6.41 | 5.88 | 6.29
20 | O=C(NCc1ccc(S(=O)(=O)c2cccc(C(F)(F)F)c2)cc1)c1cn2cc(C(F)(F)F)ccc2n1 [Compound 13, 6-(trifluoromethyl)-N-(4-((3-(trifluoromethyl)phenyl)sulfonyl)benzyl)imidazo[1,2-a]pyridine-2-carboxamide] |  |  |  | 6.52 | 5.69 | 6.13
21 | CC(C)(C(=O)Nc1ccc(Oc2ccc(F)c(Cl)c2)nc1)S(=O)(=O)c1cccc(OC(F)(F)F)c1 [Compound 121, N-(6-(3-chloro-4-fluorophenoxy)pyridin-3-yl)-2-methyl-2-((3-(trifluoromethoxy)phenyl)sulfonyl)propanamide] | 6.18 | 5.31 | 5.94 |  |  | 
22 | O=C(NCc1ccccc1S(=O)(=O)c1cccc(C(F)(F)F)c1)c1ccc(Cl)c(F)c1 [Compound 36, 4-chloro-3-fluoro-N-(2-((3-(trifluoromethyl)phenyl)sulfonyl)benzyl)benzamide] |  |  |  | 6.08 | 6.39 | 6.11
